Test results reported in paper PMC9635925, “Biological screening of a unique drug library targeting MRGPRX2” (Frontiers in Immunology, 2022).
Substitutions are numbered along the chain they refer to. Counter-ions that a name gives are not always drawn.

Assays:
[1] = molecular target: T1, MRGPRX2-WT (wild-type MRGPRX2 receptor) (Homo sapiens, UniProt Q96LB1); experiment: Primary HTS, Ca2+ mobilization (fluorescence ratio, B-score) in HEK293-Gα15 cells stably expressing wild-type MRGPRX2; type: cell-based; details: 10 μM compound
T1 construct: expressed in transfected cells
T1 sequence (Q96LB1 1-330): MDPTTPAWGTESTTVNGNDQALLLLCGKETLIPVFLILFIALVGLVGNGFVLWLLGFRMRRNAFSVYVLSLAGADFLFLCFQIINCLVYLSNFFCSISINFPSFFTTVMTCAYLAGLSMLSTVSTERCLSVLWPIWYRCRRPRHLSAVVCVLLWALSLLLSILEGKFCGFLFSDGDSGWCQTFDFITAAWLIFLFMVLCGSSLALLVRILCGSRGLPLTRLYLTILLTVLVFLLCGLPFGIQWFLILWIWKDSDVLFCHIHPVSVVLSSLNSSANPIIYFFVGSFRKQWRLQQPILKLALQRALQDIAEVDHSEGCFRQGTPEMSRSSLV
Procedure: (§1) We performed an experimental HTS on the Johns Hopkins Drug Library, which includes 1,811 (57%) FDA-approved drugs among 3,456 total compounds (28% of all known drugs worldwide) ([15]). We performed the HTS at the Johns Hopkins University ChemBioCORE Facility and employed HEK293-Gα15 cell lines that stably expressed MRGPRX2 protein.
(§2) We utilized 10 μM compounds (each compound was tested in triplicate) and calculated the compound effect using the signal-to-background fluorescence ratio (see Supplementary Methods).
(§3) In the HTS, we determined MRGPRX2 activation by a Ca^2+ mobilization assay that recorded a fluorescence change by utilizing a Functional Drug Screening System (FDSS 6000; Hamamatsu); we evaluated the compound effect using the calculated fluorescence ratio. We further applied the B-score normalization, which provided robust corrections for variation in fluorescence ratio ([22]).
(§4) We performed an experimental high-throughput screening (HTS) on the Johns Hopkins Drug Library (JHDL), which includes 1,811 (57%) FDA-approved drugs among 3,456 total compounds (28% of all known drugs worldwide). The remaining compounds in JHDL are catalogued in one or more of the resources below: British Approved Names (BAN); Dénominations Communes Françaises (DCF); International Nonproprietary Names (INN); Japanese Adopted Names (JAN); MI (Merck Index); National Formulary drug name (NF); and United States Accepted Names (USAN). The JHU drug library is stocked in 96 well plates at 10 mM in 100% DMSO and stored at -80 °C. We used a final concentration of 10 uM for each compound and DMSO concentration of 0.1% (tested in triplicate). […] We evaluated compound effect using the calculated fluorescence ratio. We further calculated B-scores, which are a relative potency score similar to Z scores in that they are the ratio of an adjusted raw value in the numerator to a measure of variability in the denominator.

[2] = molecular target: T2, MRGPRX2-MUT (MRGPRX2 N62S mutation) (Homo sapiens, UniProt Q96LB1, N62S); experiment: Primary HTS, Ca2+ mobilization (fluorescence ratio, B-score) in HEK293-Gα15 cells stably expressing the MRGPRX2 N62S mutation; type: cell-based; details: for B-scores (MUT): 10 μM compound, MRGPRX2-MUT (N62S) cells; for Change of B-scores (%): 10 μM
T2 construct: expressed in transfected cells
T2 sequence (Q96LB1 1-330 N62S): T1 sequence (Q96LB1 1-330) with N62S
Procedure: as §1, §2, §3, §4

[3] = MRGPRX2-MUT in comparison to MRGPRX2-WT cells, Supplementary Table 1
[4] = MRGPRX2-MUT in comparison to MRGPRX2-WT cells, Table 1
[5] = MRGPRX2-MUT versus MRGPRX2-WT cells, Supplementary Table 2
[6] = Supplementary Table 2, listed as Isoprenaline

B-scores (WT) ([1]; Supplementary Table 1)	B-scores (WT) ([1]; Table 1)	B-scores (MUT) ([2]; Supplementary Table 1)	B-scores (MUT) ([2]; Table 1)	Change of B-scores (%) [2, 3]	Change of B-scores (%) [2, 4]	B-scores (WT) ([1]; Supplementary Table 2)	B-scores (MUT) ([2]; Supplementary Table 2)	Change of B-scores (%) [2, 5]	Structure (SMILES)	further results
–	–	–	–	–	–	7.16	0.2	-97.19%	COc1ccc(CCN(C)CCCC(C#N)(c2cc(OC)c(OC)c(OC)c2)C(C)C)cc1OC (stereo not shown) [Gallopamil]	–
–	–	–	–	–	–	11.57	39.57	241.86%	CC(=O)[C@]1(O)Cc2c(O)c3c(c(O)c2[C@@H](O[C@H]2C[C@H](N)[C@H](O)[C@H](C)O2)C1)C(=O)c1ccccc1C3=O [Idarubicin hydrochloride]	–
32.17	32.17	16.90	16.90	-47.47%	-47.47%	32.17	16.9	-47.47%	CN(C)CCCN1c2ccccc2CCc2ccccc21 [Imipramine Hydrochloride]	–
26.61	–	10.27	–	-61.42%	–	–	–	–	CC(C)CCCC(C)NC(C)C (stereo not shown) [Iproheptine]	–
29.54	–	0.60	–	-97.97%	–	–	–	–	CCC(NC(C)C)C(O)c1ccc(O)c(O)c1 (stereo not shown) [Isoetharine Mesylate]	–
20.95	–	–	–	-100.26%	–	20.95	-0.05	-100.26%	CC(C)NCC(O)c1ccc(O)c(O)c1 (stereo not shown) [Isoproterenol Hydrochloride]	B-scores (WT) ([1]; Supplementary Table 1, listed as Isoprenaline hydrochloride): 21.82; Change of B-scores (%) ([2]; MRGPRX2-MUT in comparison to MRGPRX2-WT cells, Supplementary Table 1, listed as Isoprenaline hydrochloride): -100.25%
19.12	–	6.75	–	-64.69%	–	–	–	–	CC(C)NCC(O)c1ccc(O)c(O)c1 (stereo not shown) [Isoproterenol]	B-scores (WT) [1, 6]: 19.12; B-scores (MUT) [2, 6]: 6.75; Change of B-scores (%) ([2]; MRGPRX2-MUT versus MRGPRX2-WT cells, Supplementary Table 2, listed as Isoprenaline): -64.69%
23.14	23.14	0.81	0.81	-96.52%	-96.52%	–	–	–	CN1CCC(=C2c3ccccc3CC(=O)c3sccc32)CC1 [Ketotifen Fumarate]	–
20.12	20.12	1.38	1.38	-93.13%	-93.13%	–	–	–	CN1CCC(=C2c3ccccc3CC(=O)c3sccc32)CC1 [Ketotifen]	–
–	–	–	–	–	–	12.18	1.63	-86.62%	CC(C)(C)NC[C@H](O)c1ccc(O)c(CO)c1 [Levalbuterol]	–
39.73	39.73	0.74	-0.74	-101.85%	-101.85%	–	–	–	C[C@H]1COc2c(N3CCN(C)CC3)c(F)cc3c(=O)c(C(=O)O)cn1c23 [Levofloxacin]	–
21.95	21.95	–	-3.30	-115.04%	-115.04%	–	–	–	CCOC(=O)N1CCC(=C2c3ccc(Cl)cc3CCc3cccnc32)CC1 [Loratadine]	–
27.71	27.71	3.82	3.82	-86.20%	-86.20%	27.71	3.82	-86.2%	Cc1ccc(NC(=O)c2ccc(CN3CCN(C)CC3)cc2)cc1Nc1nc(-c2cccnc2)cs1 [Masitinib]	–
25.34	25.34	1.93	1.93	-92.39%	-92.39%	–	–	–	CN1CCc2c(c3ccccc3n2Cc2ccccc2)C1.CN1CCc2c(c3ccccc3n2Cc2ccccc2)C1.O=S(=O)(O)c1cccc2c(S(=O)(=O)O)cccc12 [Mebhydrolin Naphthalenesulfonate]	–
26.34	–	–	–	-99.82%	–	–	–	–	CC12CC3CC(C)(C1)CC(N)(C3)C2 [Memantine Hydrochloride]	–
20.54	–	2.41	–	-88.28%	–	20.54	2.41	-88.28%	CC(C)NCC(O)c1cc(O)cc(O)c1 (stereo not shown) [Metaproterenol]	–
26.04	–	37.31	–	43.29%	–	–	–	–	CC(=O)OC(C)C[N+](C)(C)C (stereo not shown) [Methacholine Chloride]	–
23.69	–	1.32	–	-94.42%	–	–	–	–	CC(=O)Oc1cc(C(C)C)c(OCCN(C)C)cc1C [Moxisylyte Hydrochloride]	–
28.83	–	7.54	–	-73.85%	–	–	–	–	NC[C@H](O)c1ccc(O)c(O)c1 [Norepinephrine]	–
28.07	28.07	–	0.05	-99.81%	-99.81%	28.07	0.05	-99.81%	CCn1cc(C(=O)O)c(=O)c2cc(F)c(N3CCNCC3)cc21 [Norfloxacin]	–

Structure (SMILES)	B-scores (WT) ([1]; Supplementary Table 1)	B-scores (WT) ([1]; Table 1)	B-scores (MUT) ([2]; Supplementary Table 1)	B-scores (MUT) ([2]; Table 1)	Change of B-scores (%) [2, 3]	Change of B-scores (%) [2, 4]	B-scores (WT) ([1]; Supplementary Table 2)	B-scores (MUT) ([2]; Supplementary Table 2)	Change of B-scores (%) [2, 5]	further results
CNCCC(Oc1ccc(C(F)(F)F)cc1)c1ccccc1 (stereo not shown) [Fluoxetine]	36.30	36.30	7.14	7.14	-80.32%	-80.32%	–	–	–	–
COc1ccc2c3c1O[C@H]1C[C@@H](O)C=C[C@@]31CCN(C)C2 [Galantamine Hydrobromide]	19.90	–	1.33	–	-93.34%	–	–	–	–	–
COc1ccc2c3c1O[C@H]1C[C@@H](O)C=C[C@@]31CCN(C)C2 [Galantamine]	40.50	–	1.25	–	-96.90%	–	–	–	–	–
CN1[C@@H]2CC(OC(=O)[C@H](CO)c3ccccc3)C[C@H]1[C@@H]1O[C@@H]12.Cl (stereo partly shown) [Hyoscine hydrochloride]	–	–	–	–	–	–	11.2	0.57	-94.9%	–
CN1[C@@H]2CC[C@H]1CC(OC(=O)[C@H](CO)c1ccccc1)C2.Cl (stereo partly shown) [Hyoscyamine Hydrochloride]	–	–	–	–	–	–	11.54	0.69	-94.01%	–
CN1[C@@H]2CC[C@H]1C[C@@H](OC(=O)[C@H](CO)c1ccccc1)C2 [Hyoscyamine]	–	–	–	–	–	–	17.72	0.65	-96.31%	–
CNCCC=C1c2ccccc2CCc2ccccc21 [Nortriptyline Hydrochloride]	–	–	–	–	–	–	16.29	2.78	-82.96%	–
NCCC(O)(P(=O)([O-])O)P(=O)([O-])O.[Na+].[Na+] [Pamidronate disodium]	30.08	–	18.72	–	-37.79%	–	–	–	–	–
